Residue numbers refer to the chain shown, from its start.
Experiments:
OATP1B1*5 = target: T1, OATP1B1*5 (Homo sapiens, UniProt Q9Y6L6, V174A); test: Remdesivir uptake into HEK cells stably expressing OATP1B1*5 vs vector control; type: in vitro ADME; conditions: 0.5 µM remdesivir, 10 min
T1 construct: expressed in transfected cells
T1 sequence (Q9Y6L6 1-691 V174A): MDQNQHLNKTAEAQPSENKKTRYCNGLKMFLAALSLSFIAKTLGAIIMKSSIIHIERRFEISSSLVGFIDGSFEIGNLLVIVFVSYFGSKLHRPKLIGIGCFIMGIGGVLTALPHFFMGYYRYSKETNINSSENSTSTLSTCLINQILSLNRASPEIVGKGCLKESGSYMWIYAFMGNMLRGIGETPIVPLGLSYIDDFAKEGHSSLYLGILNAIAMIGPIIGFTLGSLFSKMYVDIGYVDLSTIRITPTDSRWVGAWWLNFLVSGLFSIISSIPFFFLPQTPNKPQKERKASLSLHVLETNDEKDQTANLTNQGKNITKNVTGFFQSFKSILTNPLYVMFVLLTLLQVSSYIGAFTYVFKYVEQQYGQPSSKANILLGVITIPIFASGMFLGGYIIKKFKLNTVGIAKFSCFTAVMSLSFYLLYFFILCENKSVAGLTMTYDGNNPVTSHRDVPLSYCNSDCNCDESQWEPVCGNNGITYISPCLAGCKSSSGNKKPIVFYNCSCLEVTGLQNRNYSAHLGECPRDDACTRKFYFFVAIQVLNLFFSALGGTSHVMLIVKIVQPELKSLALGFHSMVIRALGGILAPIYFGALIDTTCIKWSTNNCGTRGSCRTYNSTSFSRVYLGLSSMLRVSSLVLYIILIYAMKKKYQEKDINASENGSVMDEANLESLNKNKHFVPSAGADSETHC
Source text: (§1) Generation, cultivation and characterization of human embryonic kidney (HEK) cells stably expressing OATP1B1 refseq (=OATP1B1*1a), OATP1B1*1b, OATP1B1*5 and OATP1B1*15 [18], OATP1B3 [19], OATP2B1 [13] and OCT1 [20] have been described previously. OATP1B1 cells were cultivated in minimal essential medium (Life Technologies, Paisley, UK) and OATP1B3, OATP2B1 and OCT1 cells were cultivated in Dulbecco’s modified Eagle medium (Sigma, Darmstadt, Germany). Cultivation media were supplemented with 10% fetal calf serum, 100 U/mL penicillin and 100 µg/mL streptomycin. Cells were grown at 37 °C and 5% CO2. Functionality of the cells was confirmed by measuring uptake of prototypic substrates (see Section 2.3 and supplementary material).
Uptake assays were conducted at 37 °C according to previously described methods. For this, cells were seeded in 24-well plates (320,000 cells/well) and cultured for 2 days. Cells were then incubated for a further 24 h in culture medium with 5 mM butyrate (OATP1B3, OATP2B1, OCT1) or 10 mM butyrate (OATP1B1) to increase protein levels of recombinant transporters. […]
(§2) Remdesivir was determined by UHPLC-MS-MS analysis on an Agilent 1290 infinity UHPLC system coupled to an Agilent 6495B triple quadrupole mass spectrometer (Agilent, Waldbronn, Germany) similar to a recently published method. […]

OATP1B1 = target: T2, OATP1B1 (Homo sapiens, UniProt Q9Y6L6); test: Remdesivir uptake into HEK cells stably expressing OATP1B1 (*1a) vs vector control; type: in vitro ADME; conditions: 5 µM remdesivir, 10 min
T2 construct: expressed in transfected cells
T2 sequence (Q9Y6L6 1-691): T1 sequence (Q9Y6L6 1-691 V174A) with A174V
Source text: as §1
Uptake assays were conducted at 37 °C according to previously described methods. For this, cells were seeded in 24-well plates (320,000 cells/well) and cultured for 2 days. Cells were then incubated for a further 24 h in culture medium with 5 mM butyrate (OATP1B3, OATP2B1, OCT1) or 10 mM butyrate (OATP1B1) to increase protein levels of recombinant transporters. Before the uptake experiments, cells were washed with the respective pre-warmed (37 °C) uptake buffer. The compositions of the uptake buffers were as follows: for OATP1B1, OATP1B3, OATP2B1: 142 mM NaCl, 12.5 mM hydroxyethylpiperazine ethanesulfonic acid, 5 mM KCl, 1 mM KH2PO4, 1.5 mM CaCl2, 1.2 mM MgSO4, 5 mM glucose, pH 7.3; for OCT1: 145 mM NaCl, 5 mM hydroxyethylpiperazine ethanesulfonic acid, 3 mM KCl, 1 mM CaCl2, 0.5 mM MgCl2, 5 mM glucose, pH 7.4. Uptake was initiated by replacing this solution with uptake buffer containing different concentrations of remdesivir as indicated. […]
as §2

CCC(CC)COC(=O)[C@H](C)N[P@](=O)(OC[C@H]1O[C@@](C#N)(c2ccc3c(N)ncnn23)[C@H](O)[C@@H]1O)Oc1ccccc1 [Remdesivir]
Uptake vs vector-transfected control cells (OATP1B1*5): significantly lower uptake | Significance of uptake vs control cells (OATP1B1): Statistically significant uptake | Remdesivir uptake ratio (OATP1B1; transporter-expressing vs control HEK cells): 1.3 | Accumulation vs vector-transfected control cells (OATP1B1; OATP1B1*1a cells): moderately higher
